Test results: ChEMBL document CHEMBL6153108, “Otitiglycomycins A and B: Glycolipids from the Strain Nocardia otitidiscavarum 20S-13 with Antiviral Activity against Zika Virus” (J Nat Prod, 2025)
Calls of active or inactive are those of the source. No cut-off for these calls is given here.

Assays:
[1] = system: Zika virus; assay: Antiviral activity against ZIKV MR766NIID expressing GFP infected in african green monkey Vero E6 assessed as reduction in viral replication at 50 uM incubated for 24 hrs by flow cytometry assay relative to control; format: functional; set-up: scale not given: the % may be the effect or the level left
[2] = system: Zika virus; assay: Antiviral activity against ZIKV MR766NIID expressing GFP infected in african green monkey Vero E6 assessed as reduction in virus attachment to cell surface at 25 uM incubated for 1 hr by RT-qPCR analysis relative to control; format: functional; set-up: scale not given: the % may be the effect or the level left
[3] = system: Zika virus; assay: Antiviral activity against ZIKV MR766NIID expressing GFP infected in african green monkey Vero E6 assessed as reduction in viral replication incubated for 24 hrs by flow cytometry assay; format: functional, organism-based; conditions: for Activity: dose 0.3-100 µM
[4] = system: Zika virus; assay: Antiviral activity against ZIKV MR766NIID expressing GFP infected in african green monkey Vero E6 assessed as reduction in viral replication measured after 24 hrs by flow cytometry assay; format: functional; set-up: scale not given: the % may be the effect or the level left
[5] = system: Zika virus; assay: Antiviral activity against ZIKV MR766NIID expressing GFP infected in african green monkey Vero E6 assessed as neutralization of viral infection at 25 uM compound preincubated with virus for 2 hrs followed by 0.7 uM compound addition and measured after 2 hrs by flow cytometry analysis relative to control; format: functional, organism-based; conditions: time 4.0 hrs
[6] = system: Vero C1008; assay: Cytotoxicity against african green monkey Vero E6 cells assessed as cell viability at 100 uM incubated for 48 hrs by MTS assay; format: toxicity, cell-based; conditions: chlorocebus sabaeus, vero c1008, 48 h
[7] = system: Zika virus; assay: Antiviral activity against ZIKV MR766NIID expressing GFP infected in african green monkey Vero E6 assessed as reduction in viral replication preincubated for 2 hrs and measured after 22 hrs by flow cytometry assay; format: functional, organism-based; conditions: time 24.0 hrs
[8] = Cytotoxicity against african green monkey Vero E6 cells assessed as cell viability incubated for 48 hrs by MTS assay; format: toxicity, cell-based, Vero C1008; conditions: African green monkey (Chlorocebus sabaeus)
[9] = Selectivity index, ratio of IC50 for cytotoxicity against african green monkey Vero E6 cells to IC50 for ZIKV MR766NIID expressing GFP infected in african green monkey; format: toxicity, cell-based; conditions: read-out: Ratio IC50

CCCCCCCCCCCCCCCCCC(=O)O[C@H]1[C@@H](O[C@H](CO)C(=O)O)O[C@H](CO)[C@@H](O)[C@@H]1OC(=O)C(C)C
Activity [1]: 100%
Activity [2]: 90%
IC50 ([3]; Vero C1008, 24 h): 10.5 µM
Activity [3]: Dose-dependent-effect
Activity [4]: 100%
Activity [5]: Active
Activity [6]: Non-toxic
Activity [7]: inactive
IC50 at 48 h [8]: > 100 µM
selectivity ratio [9]: > 10

CCCCCCCCCCCCCCC(=O)O[C@H]1[C@@H](O[C@H](CO)C(=O)O)O[C@H](CO)[C@@H](O)[C@@H]1O
Activity [3]: inactive
Activity [6]: Non-toxic
IC50 at 48 h [8]: > 100 µM
